Measurements taken from ChEMBL document CHEMBL1201862, “PubChem BioAssay data set” (2004).
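Following 48 hours of exposure in 96-well plates, responses at five concentrations were used to interpolate endpoints linearly. GI50 = concentration required for 50% inhibition of growth.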 Calls of active or inactive are those of the source. Cut-off read from the data, not from the text of the source: active = GI50 up to about 1.1 µM and inactive = higher.

Experiments:
Test in all cases: growth of human tumour cells (NCI), 48 h
786-0 = test system: 786-0
A498 = test system: A498
A549 = test system: A549
CAKI-1 = test system: CAKI-1
HCT-15 = test system: HCT-15
HOP-92 = test system: HOP-92
LOX IMVI = test system: LOX IMVI
MCF7 = test system: MCF7
MDA-MB-435 = test system: MDA-MB-435
MDA-N = test system: MDA-N
NCI-H226 = test system: NCI-H226
OVCAR-5 = test system: OVCAR-5
SF-268 = test system: SF-268
SF-539 = test system: SF-539
SK-MEL-5 = test system: SK-MEL-5
SNB-19 = test system: SNB-19
TK-10 = test system: TK-10
BT-549 = test system: BT-549
NCI-H23 = test system: NCI-H23
NCI-H460 = test system: NCI-H460

COc1cccc([C@@H]2CC(=O)c3cc4c(cc3N2)OCO4)c1
GI50 (786-0): > 100 µM (inactive)
GI50 (A498): > 100 µM (inactive)
GI50 (A549): > 100 µM (inactive)
GI50 (CAKI-1): > 100 µM (inactive)
GI50 (HCT-15): > 100 µM
GI50 (HOP-92): > 100 µM (inactive)
GI50 (LOX IMVI): > 100 µM (inactive)
GI50 (MCF7): > 100 µM (inactive)
GI50 (MDA-MB-435): 71.6 µM (inactive)
GI50 (MDA-N): > 100 µM (inactive)
GI50 (NCI-H226): > 100 µM (inactive)
GI50 (OVCAR-5): > 100 µM (inactive)
GI50 (SF-268): > 100 µM (inactive)
GI50 (SF-539): > 100 µM (inactive)
GI50 (SK-MEL-5): 96.8 µM (inactive)
GI50 (SNB-19): > 100 µM (inactive)
GI50 (TK-10): > 100 µM (inactive)

COc1ccc(OC)c(C(Cc2ccnc3ccccc23)Cc2ccnc3ccccc23)c1
GI50 (786-0): > 10 µM (inactive)
GI50 (A498): > 10 µM (inactive)
GI50 (A549): > 10 µM (inactive)
GI50 (BT-549): 4.09 µM (inactive)
GI50 (CAKI-1): > 10 µM (inactive)
GI50 (HCT-15): 6.44 µM
GI50 (HOP-92): 4.09 µM (inactive)
GI50 (LOX IMVI): 5.36 µM (inactive)
GI50 (MCF7): 4.93 µM (inactive)
GI50 (MDA-MB-435): 0.56 µM (active)
GI50 (NCI-H226): 9.57 µM (inactive)
GI50 (NCI-H23): > 10 µM (inactive)
GI50 (NCI-H460): 5.47 µM (inactive)
GI50 (OVCAR-5): > 10 µM (inactive)
GI50 (SF-268): > 10 µM (inactive)
GI50 (SF-539): > 10 µM (inactive)
GI50 (SK-MEL-5): 3.66 µM (inactive)
GI50 (SNB-19): > 10 µM (inactive)
GI50 (TK-10): > 10 µM (inactive)

Nc1ccc(C(=O)NN2C(=O)[C@H](Cl)C2c2ccc(Cl)cc2)cc1 (some centres not stated)
GI50 (786-0): 1.32 µM (inactive)
GI50 (A549): 2.45 µM (inactive)
GI50 (CAKI-1): 1.4 µM (inactive)
GI50 (HCT-15): 0.646 µM
GI50 (HOP-92): 1.87 µM (inactive)
GI50 (MCF7): 1.17 µM (inactive)
GI50 (MDA-MB-435): 1.84 µM (inactive)
GI50 (NCI-H226): 0.714 µM (active)
GI50 (NCI-H23): 0.869 µM (active)
GI50 (NCI-H460): 2.08 µM (inactive)
GI50 (OVCAR-5): 4.2 µM (inactive)
GI50 (SF-268): 1.06 µM (active)
GI50 (SF-539): 1.79 µM (inactive)
GI50 (SK-MEL-5): 1.93 µM (inactive)
GI50 (SNB-19): 1.67 µM (inactive)
GI50 (TK-10): 0.838 µM (active)

C=C1[C@@H]2CCC3[C@]4(C)C(CC[C@@]5(C)C(=O)O[C@H](O)[C@@H]45)[C@H](O)[C@]3(C2)[C@H]1OC1OC(CO)C(O)C(O)C1O (some centres not stated)
GI50 (786-0): > 50 µM (inactive)
GI50 (A498): > 50 µM (inactive)
GI50 (A549): > 50 µM (inactive)
GI50 (BT-549): > 50 µM (inactive)
GI50 (HCT-15): > 50 µM
GI50 (LOX IMVI): > 50 µM (inactive)
GI50 (MCF7): > 50 µM (inactive)
GI50 (MDA-N): > 50 µM (inactive)
GI50 (NCI-H226): > 50 µM (inactive)
GI50 (NCI-H23): > 50 µM (inactive)
GI50 (NCI-H460): > 50 µM (inactive)
GI50 (OVCAR-5): > 50 µM (inactive)
GI50 (SF-268): > 50 µM (inactive)
GI50 (SF-539): > 50 µM (inactive)
GI50 (SK-MEL-5): > 50 µM (inactive)
GI50 (SNB-19): > 50 µM (inactive)
GI50 (TK-10): > 50 µM (inactive)

CC1[C@@H](OCc2ccccc2)COC(=O)N1Cc1ccccc1 (some centres not stated)
GI50 (786-0): > 100 µM (inactive)
GI50 (A549): 85.9 µM (inactive)
GI50 (HCT-15): > 100 µM
GI50 (HOP-92): 5.27 µM (inactive)
GI50 (LOX IMVI): > 100 µM (inactive)
GI50 (MCF7): 81.8 µM (inactive)
GI50 (MDA-MB-435): > 100 µM (inactive)
GI50 (MDA-N): > 100 µM (inactive)
GI50 (NCI-H226): > 100 µM (inactive)
GI50 (NCI-H23): 52.1 µM (inactive)
GI50 (OVCAR-5): > 100 µM (inactive)
GI50 (SF-268): > 100 µM (inactive)
GI50 (SK-MEL-5): 69.5 µM (inactive)
GI50 (SNB-19): > 100 µM (inactive)
GI50 (TK-10): > 100 µM (inactive)

O=c1ccn2n1CCCCC2
GI50 (786-0): > 100 µM (inactive)
GI50 (A498): > 100 µM (inactive)
GI50 (A549): > 100 µM (inactive)
GI50 (CAKI-1): > 100 µM (inactive)
GI50 (HCT-15): > 100 µM
GI50 (HOP-92): > 100 µM (inactive)
GI50 (LOX IMVI): > 100 µM (inactive)
GI50 (MDA-MB-435): > 100 µM (inactive)
GI50 (MDA-N): > 100 µM (inactive)
GI50 (NCI-H226): > 100 µM (inactive)
GI50 (NCI-H23): > 100 µM (inactive)
GI50 (NCI-H460): > 100 µM (inactive)
GI50 (OVCAR-5): > 100 µM (inactive)
GI50 (SF-268): > 100 µM (inactive)
GI50 (SF-539): > 100 µM (inactive)
GI50 (SK-MEL-5): > 100 µM (inactive)
GI50 (SNB-19): > 100 µM (inactive)
GI50 (TK-10): > 100 µM (inactive)

CSc1ncnc2c1ncn2CCC(=O)O
GI50 (786-0): > 100 µM (inactive)
GI50 (A498): > 100 µM (inactive)
GI50 (A549): > 100 µM (inactive)
GI50 (CAKI-1): > 100 µM (inactive)
GI50 (HOP-92): > 100 µM (inactive)
GI50 (LOX IMVI): > 100 µM (inactive)
GI50 (MCF7): > 100 µM (inactive)
GI50 (MDA-MB-435): > 100 µM (inactive)
GI50 (MDA-N): > 100 µM (inactive)
GI50 (NCI-H226): > 100 µM (inactive)
GI50 (NCI-H23): > 100 µM (inactive)
GI50 (NCI-H460): > 100 µM (inactive)
GI50 (OVCAR-5): > 100 µM (inactive)
GI50 (SF-268): > 100 µM (inactive)
GI50 (SF-539): > 100 µM (inactive)
GI50 (SK-MEL-5): > 100 µM (inactive)
GI50 (SNB-19): > 100 µM (inactive)
GI50 (TK-10): > 100 µM (inactive)

O=[N+]([O-])c1ccc(S(=O)(=O)n2c3ccc(Br)cc3c3nc4ccccc4nc32)cc1
GI50 (786-0): > 100 µM (inactive)
GI50 (A498): > 100 µM (inactive)
GI50 (A549): > 100 µM (inactive)
GI50 (CAKI-1): > 100 µM (inactive)
GI50 (HCT-15): > 100 µM
GI50 (HOP-92): > 100 µM (inactive)
GI50 (LOX IMVI): > 100 µM (inactive)
GI50 (MDA-MB-435): > 100 µM (inactive)
GI50 (MDA-N): > 100 µM (inactive)
GI50 (NCI-H226): 24 µM (inactive)
GI50 (NCI-H23): > 100 µM (inactive)
GI50 (NCI-H460): > 100 µM (inactive)
GI50 (OVCAR-5): > 100 µM (inactive)
GI50 (SF-268): > 100 µM (inactive)
GI50 (SK-MEL-5): > 100 µM (inactive)
GI50 (SNB-19): > 100 µM (inactive)
GI50 (TK-10): > 100 µM (inactive)
